Results: patent US4880783A, “Use of adenosine, hypoxanthine and ribose-containing solution for improved protection of the heart during surgery” (University of Virginia Alumnia Patents Foundation, priority 1988, dated 1989)

Assays:
[1] = system: myocardial ATP (isolated perfused rat heart); assay: Myocardial ATP in Langendorff isolated perfused rat heart before, during and after 10 min ischemia; details: 100 μM; for ATP, 10' Ischemia / ATP, 15' RP / ATP, 30' RP / ATP, 60' RP / ATP, Equilibration: 37° C., N ≥ 5; for ATP, 15' RP: 15' reperfusion; for ATP, 30' RP: 30' reperfusion; for ATP, 60' RP: 60' reperfusion; for ATP, Equilibration: pre-ischemic equilibration; for nucleotide pools (ATP) during ischemia and/or post-ischemic reperfusion: in words, isolated rat heart
[2] = system: isolated perfused rat heart; assay: Recovery of left ventricular developed pressure in isolated perfused rat heart after 10 min total ischemia; parameters: % of Control Developed Pressure, 15' RP / % of Control Developed Pressure, 30' RP / % of Control Developed Pressure, 60' RP: concentration or dose not given beside the values; details: for % of Control Developed Pressure, 15' RP: 15' reperfusion; for % of Control Developed Pressure, 15' RP / % of Control Developed Pressure, 30' RP / % of Control Developed Pressure, 60' RP: 37° C., N ≥ 5; for % of Control Developed Pressure, 30' RP: 30' reperfusion; for % of Control Developed Pressure, 60' RP: 60' reperfusion; for contractile function of the isolated perfused rat heart: in words, after 10 minutes of total ischemia
Protocol: This hypothesis was also tested using the aforementioned isolated rat heart model. The effects of adenosine and hypoxanthine on the recovery of cardiac contractile function was assessed by the determination of left ventricular developed pressure during the post-ischemic reperfusion phase with the use of an intra-ventricular saline filled balloon.

Row | Structure (SMILES) | ATP, 10' Ischemia [1] | ATP, 15' RP [1] | ATP, 30' RP [1] | ATP, 60' RP [1] | ATP, Equilibration [1] | nucleotide pools (ATP) during ischemia and/or post-ischemic reperfusion [1] | % of Control Developed Pressure, 15' RP [2] | % of Control Developed Pressure, 30' RP [2] | % of Control Developed Pressure, 60' RP [2] | contractile function of the isolated perfused rat heart [2]
1 | Nc1ncnc2c1ncn2[C@@H]1O[C@H](CO)[C@@H](O)[C@H]1O [Adenosine, adenosine] | 1.7 ± 0.1 μmoles/g wet weight | 2.9 ± .08 μmoles/g wet weight | 2.7 ± .08 μmoles/g wet weight | 2.7 ± .06 μmoles/g wet weight | 3.9 ± 0.4 μmoles/g wet weight | able to enhance nucleotide pools (ATP) during ischemia and/or during the post-ischemic reperfusion period | 86 ± 3% | 96 ± 3% | 95 ± 3% | capable of restoring the contractile function
2 | O=c1[nH]cnc2nc[nH]c12 [Hypoxanthine, hypoxanthine] | 1.4 ± .2 μmoles/g wet weight | 2.7 ± .2 μmoles/g wet weight | 2.7 ± .1 μmoles/g wet weight | 2.3 ± .1 μmoles/g wet weight | 3.4 ± .2 μmoles/g wet weight | able to enhance nucleotide pools (ATP) during ischemia and/or during the post-ischemic reperfusion period | 84 ± 5% | 88 ± 2% | 87 ± 3% | capable of restoring the contractile function
